Data reported in patent US20140155384A1, “COMPOUNDS AND METHODS OF TREATING DIABETES” (Medivation Technologies, Inc., priority 2011, published 2014).

Columns and labels:
[1] = target: T1, human recombinant adrenergic α2A receptor (Homo sapiens, UniProt P08913); assay: Radioligand binding, adrenergic α2A receptor ([3H]MK-912); conditions: 0.1 μM compound, Sf9 cells, 1 nM [3H]MK-912; for inhibition at 0.1 µM: read-out: Percentage inhibition of ligand binding, Adrenergic α2A
T1 construct: expressed in transfected cells; host or cells: insect Sf9 cells
T1 sequence (P08913 1-465): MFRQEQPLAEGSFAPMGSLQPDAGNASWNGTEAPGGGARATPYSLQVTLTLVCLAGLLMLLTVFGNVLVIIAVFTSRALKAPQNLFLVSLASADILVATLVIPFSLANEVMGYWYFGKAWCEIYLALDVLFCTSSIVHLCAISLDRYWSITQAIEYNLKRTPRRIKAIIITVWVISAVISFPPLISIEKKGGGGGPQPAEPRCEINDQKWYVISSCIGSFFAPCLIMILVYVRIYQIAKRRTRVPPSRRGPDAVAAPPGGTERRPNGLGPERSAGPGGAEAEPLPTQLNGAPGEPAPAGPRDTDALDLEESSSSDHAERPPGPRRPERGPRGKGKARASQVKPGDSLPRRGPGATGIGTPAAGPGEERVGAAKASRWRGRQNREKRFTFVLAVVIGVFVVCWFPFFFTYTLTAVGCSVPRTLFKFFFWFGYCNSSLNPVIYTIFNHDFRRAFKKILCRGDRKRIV
Procedure: To evaluate in radioligand binding assays the activity of compounds, human recombinant adrenergic α2A receptor expressed in insect Sf9 cells (Uhlen, S. et al, J. Pharmacol. Exp. Ther. 271:1558, 1994) in a modified Tris-HCl buffer (50 mM Tris-HCl, pH 7.4, 12.5 mM MgCl2, 2 mM EDTA) was used. Compounds were incubated with 1 nM [^3H]MK-912 for 60 min at 25° C. MK912 is (2S-trans)-1,3,4,5′,6,6′,7,12b-octahydro-1′,3′-dimethyl-spiro[2H-benzofuro[2,3-a]quinolizine-2,4′(1′H)-pyrimidin]-2′(3′H)-one hydrochloride Non-specific binding was estimated in the presence of 10 μM WB-4101 (2-(2,6-Dimethoxyphenoxyethyl)aminoethyl-1,4-benzodioxane hydrochloride). Receptor proteins were filtered and washed, the filters were then counted to determine [^3H]MK-912 specifically bound. Compounds were screened at 1 μM or lower, using 1% DMSO as vehicle. Compounds were tested in this biochemical assay and percent inhibition of specific binding was determined. Biochemical assay results are presented as the percent inhibition of specific binding in Table 2.

[2] = target: T2, rat adrenergic α1B receptor (Rattus norvegicus, UniProt P15823); assay: Radioligand binding, adrenergic α1B receptor ([3H]Prazosin); conditions: 0.1 μM compound, Wistar rat liver, read-out: Percentage inhibition of ligand binding, Adrenergic α1B
T2 construct: rat adrenergic α1B receptor obtained from Wistar Rat liver; from tissue; host or cells: Wistar rat liver
T2 sequence (P15823 1-515): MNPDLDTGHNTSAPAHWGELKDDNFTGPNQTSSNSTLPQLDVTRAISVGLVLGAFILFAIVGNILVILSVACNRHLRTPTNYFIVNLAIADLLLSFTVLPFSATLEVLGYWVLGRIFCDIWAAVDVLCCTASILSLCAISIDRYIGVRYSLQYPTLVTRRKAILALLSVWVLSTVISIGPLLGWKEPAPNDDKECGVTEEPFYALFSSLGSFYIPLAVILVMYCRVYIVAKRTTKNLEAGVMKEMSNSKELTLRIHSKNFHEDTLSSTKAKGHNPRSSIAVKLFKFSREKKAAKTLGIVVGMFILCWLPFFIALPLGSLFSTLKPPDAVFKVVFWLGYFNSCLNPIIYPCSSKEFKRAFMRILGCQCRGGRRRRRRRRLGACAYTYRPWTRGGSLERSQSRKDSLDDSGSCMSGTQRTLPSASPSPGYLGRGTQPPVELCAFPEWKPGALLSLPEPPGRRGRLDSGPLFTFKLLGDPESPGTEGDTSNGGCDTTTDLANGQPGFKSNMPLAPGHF
Procedure: To evaluate in radioligand binding assays the activity of compounds, rat adrenergic α1B receptor obtained from Wistar Rat liver (Garcia-S' ainz, J. et al, Biochem. Biophys. Res. Commun. 186:760, 1992; Michel, A. et al, Br. J. Pharmacol. 98:883, 1989) in a modified Tris-HCl buffer (50 mM Tris-HCl buffer, pH 7.4, 0.5 mM EDTA) was used. Compounds were incubated with 0.25 nM [^3H]Prazosin for 60 min at […]. Non-specific binding was estimated in the presence of 10 μM phentolamine. Receptor proteins were filtered and washed, the filters were then counted to determine [^3H]Prazosin specifically bound. Compounds were screened at 1 μM or lower, using 1% DMSO as vehicle. Compounds were tested in this biochemical assay and percent inhibition of specific binding was determined. Biochemical assay results are presented as the percent inhibition of specific binding in Table 2.

[3] = target: T3, human recombinant adrenergic α1D receptor (Homo sapiens, UniProt P25100); assay: Radioligand binding, adrenergic α1D receptor ([3H]Prazosin); conditions: 0.1 μM compound; HEK-293 cells; 0.6 nM [3H]Prazosin; read-out: Percentage inhibition of ligand binding, Adrenergic α1D
T3 construct: expressed in transfected cells; host or cells: HEK-293
T3 sequence (P25100 1-572): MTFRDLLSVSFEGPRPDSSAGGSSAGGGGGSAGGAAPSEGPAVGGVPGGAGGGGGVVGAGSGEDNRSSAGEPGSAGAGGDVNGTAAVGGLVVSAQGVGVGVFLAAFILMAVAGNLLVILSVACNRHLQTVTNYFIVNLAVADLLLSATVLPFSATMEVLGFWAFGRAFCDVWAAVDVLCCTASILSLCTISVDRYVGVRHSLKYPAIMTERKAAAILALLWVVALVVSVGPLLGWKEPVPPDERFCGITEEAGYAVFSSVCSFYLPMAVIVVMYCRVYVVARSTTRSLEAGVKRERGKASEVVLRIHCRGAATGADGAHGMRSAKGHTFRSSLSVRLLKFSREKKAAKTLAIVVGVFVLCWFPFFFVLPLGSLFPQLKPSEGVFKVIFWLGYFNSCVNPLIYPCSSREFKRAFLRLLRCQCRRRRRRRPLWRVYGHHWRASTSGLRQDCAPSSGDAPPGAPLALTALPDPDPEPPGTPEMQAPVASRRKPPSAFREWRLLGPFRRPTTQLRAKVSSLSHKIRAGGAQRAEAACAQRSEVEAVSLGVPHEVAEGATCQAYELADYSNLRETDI
Procedure: Compounds were incubated with 0.6 nM [3H]Prazosin for 60 min at 25° C. Non-specific binding was estimated in the presence of 10 μM phentolamine. Receptor proteins were filtered and washed, the filters were then counted to determine [3H]Prazosin specifically bound. Compounds were screened at 1 μM or lower, using 1% DMSO as vehicle. Biochemical assay results are presented as the percent inhibition of specific binding in Table 2.

[4] = target: T4, human recombinant adrenergic α2B receptor (Homo sapiens, UniProt P18089); assay: Radioligand binding, adrenergic α2B receptor ([3H]Rauwolscine); conditions: CHO-K1 cells, read-out: Percentage inhibition of ligand binding, Adrenergic α2B; for inhibition at 0.1 µM: 0.1 μM compound
T4 construct: expressed in transfected cells; host or cells: CHO-K1
T4 sequence (P18089 1-450): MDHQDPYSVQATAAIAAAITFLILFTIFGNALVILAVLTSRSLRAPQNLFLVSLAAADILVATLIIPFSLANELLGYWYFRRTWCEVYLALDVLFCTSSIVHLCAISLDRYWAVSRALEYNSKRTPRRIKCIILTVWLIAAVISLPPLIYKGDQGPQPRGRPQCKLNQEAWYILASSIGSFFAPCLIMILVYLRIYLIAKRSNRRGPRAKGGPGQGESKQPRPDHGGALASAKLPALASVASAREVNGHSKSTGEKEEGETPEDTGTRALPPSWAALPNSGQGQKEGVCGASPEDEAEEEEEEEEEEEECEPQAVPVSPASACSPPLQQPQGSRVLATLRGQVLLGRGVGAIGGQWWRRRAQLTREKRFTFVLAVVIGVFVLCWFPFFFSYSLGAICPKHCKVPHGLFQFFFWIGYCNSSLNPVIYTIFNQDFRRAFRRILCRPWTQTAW
Procedure: To evaluate in radioligand binding assays the activity of compounds, human recombinant adrenergic α2B receptor expressed in Chinese hamster ovary (CHO) K1 cells (Uhlen, S. et al, Eur. J. Pharmacol. 343(1):93, 1998) in a modified Tris-HCl buffer (50 mM Tris-HCl, pH 7.4, 12.5 mM MgCl2, 1 mM EDTA, 0.2% BSA) was used. Compounds were incubated with 2.5 nM [^3H]Rauwolscine for 60 min at 25° C. Non-specific binding was estimated in the presence of 10 μM Prazosin. Receptor proteins were filtered and washed, the filters were then counted to determine [^3H]Rauwolscine specifically bound. Compounds were screened at 1 μM or lower, using 1% DMSO as vehicle. Compounds were tested in this biochemical assay and percent inhibition of specific binding was determined. Biochemical assay results are presented as the percent inhibition of specific binding in Table 2.

SMILES	inhibition at 0.1 µM [1] [%]	inhibition at 0.1 µM [2] [%]	inhibition at 0.1 µM [3] [%]	inhibition at 0.1 µM [4] [%]	Percentage inhibition of ligand binding, Adrenergic α2A [1] [%]	inhibition at 0.03 µM ([4]; 0.03 μM compound) [%]
Cc1ccc2c(c1)c1c(n2-c2ccccc2-c2c(C)noc2C)CCN(C)C1 [Compound No. 82, 4-(2-(2,8-dimethyl-3,4-dihydro-1H-pyrido[4,3-b]indol-5(2H)-yl)phenyl)-3,5-dimethylisoxazole]	30	14	14	21	–	–
Cc1ccc2c(c1)c1c(n2-c2ccc3nc(C)ccc3c2)CCN(C)C1 [Compound No. 157, 2,8-dimethyl-5-(2-methyl-quinolin-6-yl)-2,3,4,5-tetrahydro-1H-pyrido[4,3-b]indole]	8	22	13	60	–	–
Cc1ccc2c(c1)c1c(n2-c2ccc(-c3ccc(F)nc3)cn2)CCN(C)C1 [Compound No. 142, 5-(6′-fluoro-3,3′-bipyridin-6-yl)-2,8-dimethyl-2,3,4,5-tetrahydro-1H-pyrido[4,3-b]indole]	59	83	78	91	–	–
Cc1ccc2c(c1)c1c(n2-c2ccc(-c3sccc3C)cn2)CCN(C)C1 [Compound No. 148, 2,8-dimethyl-5-(5-(3-methylthiophen-2-yl)pyridin-2-yl)-2,3,4,5-tetrahydro-1H-pyrido[4,3-b]indole]	50	63	68	90	–	–
Cc1ccc2c(c1)c1c(n2-c2cnc3c(c2)CCCC3)CCN(C)C1 [Compound No. 153]	1	–	–	–	–	–
Cc1ccc2c(c1)c1c(n2-c2cscc2-c2cccc3[nH]ncc23)CCN(C)C1 [Compound 41]	87	77	76	70	–	–
Cc1ccc2c(c1)c1c(n2-c2cscc2-c2c(C)noc2C)CCN(C)C1 [Compound No. 62]	67	32	18	19	–	–
Cc1csc(-c2ccc(-n3c4c(c5cc(C)ccc53)CN(C)CC4)nc2)c1 [Compound No. 144, 2,8-dimethyl-5-(5-(4-methylthiophen-2-yl)pyridin-2-yl)-2,3,4,5-tetrahydro-1H-pyrido[4,3-b]indole]	72	68	52	95	–	–
Cc1ccc2c(c1)c1c(n2-c2ccccc2-c2ccc(S(N)(=O)=O)cc2)CCN(C)C1 [Compound No. 163, 2′-(2,8-dimethyl-3,4-dihydro-1H-pyrido[4,3-b]indol-5(2H)-yl)biphenyl-4-sulfonamide]	–	–	–	69	–	–
Cc1ccc2c(c1)c1c(n2-c2ccccc2-c2ccc(S(C)(=O)=O)cc2)CCN(C)C1 [Compound No. 160, 2,8-dimethyl-5-(4′-(methylsulfonyl)biphenyl-2-yl)-2,3,4,5-tetrahydro-1H-pyrido[4,3-b]indole]	–	–	–	74	–	–
Cc1ccc2c(c1)c1c(n2-c2ccccc2-c2cn[nH]c2)CCN(C)C1 [Compound No. 104, 5-(2-(1H-pyrazol-4-yl)phenyl)-2,8-dimethyl-2,3,4,5-tetrahydro-1H-pyrido[4,3-b]indole]	10	–	22	87	19	61
Cc1ccc2c(c1)c1c(n2-c2ccccc2-c2cnccc2C)CCN(C)C1 [Compound No. 159, 2,8-dimethyl-5-(2-(4-methylpyridin-3-yl)phenyl)-2,3,4,5-tetrahydro-1H-pyrido[4,3-b]indole]	–	–	–	56	–	–
Cc1ccc2c(c1)c1c(n2-c2ncccc2-c2ccncc2)CCN(C)C1 [Compound No. 161, 5-(3,4′-bipyridin-2-yl)-2,8-dimethyl-2,3,4,5-tetrahydro-1H-pyrido[4,3-b]indole]	–	–	–	26	–	–
Cc1ccc2c(c1)c1c(n2-c2cnc(C)c3ccccc23)CCN(C)C1 [Compound No. 164, 2,8-dimethyl-5-(1-methylisoquinolin-4-yl)-2,3,4,5-tetrahydro-1H-pyrido[4,3-b]indole]	–	–	–	3	–	–
